According to patent publication US5288705A, “Manipulation of ovulation and spawning in fish” (Israel Oceanographic & Limnological Research Ltd., priority 1988, dated 1994):

Key:
Format in all cases: in vivo
[1] = system: Female seabream (Sparus aurata); assay: Plasma GtH levels by specific homologous radioimmunoassay after GnRHa administration (Example 1); conditions: FIG. 1
Procedure: (§1) Female seabream (Sparus aurata) reaching final stages of vitellogenesis received one of the following treatment of GnRHa - an analog of mammalian GNRH ([D-Ala^6 -Pro^9 -NET]-LHRH):
(§2) 1. An intramuscular injection of GnRHa in a saline solution (10 μg GnRHa/kg body weight which is an acceptable amount for injection);
(§3) 2. Implantation of a Silastic implant (Sila.) according to Crim et al., 1986, containing GnRHa (150 μg GnRHa/fish);
(§4) 3. Implantation of a biodegradable copolymer of polylacticpolyglycolic acid (Z. implant) containing GnRHa (150 μg GnRHa/fish);
(§5) 4. Placebo injection of saline (Control).
Before the treatment and at various intervals thereafter, the fish were bled. After withdrawing a blood sample the fish were returned into the water. GtH levels were determined in the withdrawn blood sample by specific homologous radioimmunoassay. The results are shown in FIG. 1 of the annexed drawings.

[2] = system: Female seabream (Sparus aurata); assay: Spawning activity of treated females kept with two males (Example 1); conditions: spawning activity = tens of thousands of fertilized eggs per day over more than one week
Procedure: as §1, §2, §3, §4, §5
Additionally, several treated, non-bled females from each treatment group were kept, each in a separate container, which was connected to an egg collector, together with two males. The females were followed for their spawning activity, which was defined in this experiment as tens of thousands of fertilized eggs collected per day over a period of more than one week.

[3] = system: females of rainbow trout, Salmo gaixdneri; assay: Blood GtH levels after hormone administration (Example 4)
Procedure: (§6) 24 females of rainbow trout, Salmo gaixdneri, were divided into four groups, six fish in each group. Each group received one of the following treatments:
(§7) 1. Injection of the mammalian GnRHa as in Example 1 ([…] body weight), in saline;
(§8) 2. Administration of a biodegradable copolymer of polylactic-polyglycolic acid containing the same GnRHa (150 mg/fish 150 μg/fish) in pellets, implanted under the fish's skin;
(§9) 3. Ethylene vinyl acetate copolymer pellets containing a fish GnRH analog (GNRHH) - [D-Arg^6 -Pro^9 -NET]sGnRH (150 mg/fish 150 μg/fish),implanted under the skin;
All fish were bled before and at different intervals after hormone administration, for the determination of blood GtH levels, similarly as in Example 1.

[4] = system: females of rainbow trout, Salmo gaixdneri; assay: Occurrence of ovulation monitored by ovarian biopsy (Example 4)
Procedure: as §6, §7, §8, §9
An additional four groups of 20 females in each group, undergoing advanced stages of vitellogenesis, were treated as above and used for monitoring the state of ovarian development and the occurrence of ovulation. An overian biopsy was sampled from these females every 2 to 4 days for 30 days post-treatment.

For [D-Ala^6 -Pro^9 -NET]-LHRH [Group 1], the “plasma GtH level / GtH release” value [1] was “decreased rapidly”, the “percentage of the females showing spawning activity” value [2] was 25% and the “period of GtH level surge in plasma” value [3] was “about 48 hrs”. The “degree of ovulation (in percent of ovulated females)” value ([4]; 6 days post treatment) was 30%, the “degree of ovulation (in percent of ovulated females)” value ([4]; 9 days post treatment) was 40% and the “degree of ovulation (in percent of ovulated females)” value ([4]; 30 days post treatment) was 60%. For the same substance, the “acceleration / synchronization of ovulation” value ([4]; versus control group) was “did not accelerate or synchronize ovulation”.
